Experiments:
Matricaria = assay: Pre-emergence test/greenhouse; type: in vivo; conditions: 30 g of ai./ha, after three weeks
Description: (§1) Pre-Emergence Test/Greenhouse Solvent: 5 parts by weight of acetone Emulsifier: 1 part by weight of alkylaryl polyglycol ether To produce a suitable preparation of active compound, 1 part by weight of active compound is mixed with the stated amount of solvent, the stated amount of emulsifier is added and the concentrate is diluted with water to the desired concentration. Seeds of the test plants are sown in normal soil. After about 24 hours, the soil is sprayed with the preparation of active compound such that the particular amount of active compound desired is applied per unit area. The concentration of the spray liquor is chosen so that the particular amount of active compound desired is applied in 500 ml of water per hectare. After three weeks, the degree of damage to the plants is assessed in % damage in comparison to the development of the untreated control. The figures denote: • 0%=no effect (like untreated control) • 100%=total destruction

Digitaria = assay: Pre-emergence test/greenhouse; type: in vivo; conditions: 30 g of ai./ha, after three weeks
Description: as §1

Polygonum = assay: Pre-emergence test/greenhouse; type: in vivo; conditions: 30 g of ai./ha, after three weeks
Description: as §1

Avena = assay: Pre-emergence test/greenhouse; type: in vivo; conditions: 504 h, 30 g of ai./ha, after three weeks, read-out: degree of damage, Avena
Description: as §1

Alopecurus = assay: Pre-emergence test/greenhouse; type: in vivo; conditions: 504 h, 30 g of ai./ha, after three weeks, read-out: degree of damage, Alopecurus
Description: as §1

Wheat [1] = assay: Pre-emergence test/greenhouse; type: in vivo; conditions: pre-emergence, 30 g of ai./ha, after three weeks; 0%=no effect, 100%=total destruction
Description: as §1

Sinapis arvensis = assay: Post-emergence tests/outdoors (Example C, Canada); type: in vivo; conditions: outdoors, 15 g of a.i./ha + SAS (Canplus 411), 70 WP, 5 tests
Description: (§2) Post-Emergence Tests/Outdoors In addition to the comparative compounds (B) and (D), the sodium salt of the compound of the formula (I) was tested under outdoor conditions in the main cultivation areas of summer wheat in Canada against economically important weeds. The small-plot experiments were carried out on cultivated land under agricultural use. Areas with particularly extensive weed growth were chosen preferably. The active compounds were applied across the area by the spray method, with an average droplet size. To produce a useful preparation of active compound, the active compounds were formulated as 70 WP (70% w/w water-dispersible powder) and applied with customary amounts of water. Wetting of the plants was improved by addition of a surface-active substance (SAS) in the concentrations recommended by the respective manufacturer. To assess the crop compatibility, from 1 to 8 weeks after the treatment, plant growth inhibitions or […] of the leaf area were assessed in % damage in comparison to the development of the untreated control. At different intervals after the treatment, the herbicidal activity was assessed as % reduction in comparison to the untreated control, based on the weed development. The figures denote: • 0%=no damage of the crops or no herbicidal effect, • 100%=total destruction of the crops or the weeds.

Thlaspi arvense = assay: Post-emergence tests/outdoors (Example C, Canada); type: in vivo; conditions: outdoors, 15 g of a.i./ha + SAS (Canplus 411), 70 WP, 3 tests
Description: as §2

Avena fatua = assay: Post-emergence tests/outdoors (Example C, Canada); type: in vivo; conditions: outdoors, 15 g of a.i./ha + SAS (Canplus 411), 70 WP, 6 tests
Description: as §2

Fallopia convolvulus = assay: Post-emergence tests/outdoors (Example C, Canada); type: in vivo; conditions: outdoors, 15 g of a.i./ha + SAS (Canplus 411), 70 WP, 5 tests
Description: as §2

Setaria viridis = assay: Post-emergence tests/outdoors (Example C, Canada); type: in vivo; conditions: outdoors, 15 g of a.i./ha + SAS (Canplus 411), 70 WP, 5 tests
Description: as §2

[2] = tested on: weeds, such as Agropyron, Alopecurus, Avena, Bromus, Lolium, Setaria and Veronica; assay: Post-emergence test/greenhouse, summary over weeds; type: in vivo; conditions: cf. Table B1
Description: Post-Emergence Test/Greenhouse [table] To produce a suitable preparation of active compound, 1 part by weight of active compound is mixed with the stated amount of solvent, the stated amount of emulsifier is added and the concentrate is diluted with water to the desired concentration. Test plants which have a height of 5-15 cm are sprayed with the preparation of active compound such that the particular amounts of active compound desired are applied per unit area. The concentration of the spray liquor is chosen so that the particular amounts of active compound desired are applied in 500 ml of water/ha. After three weeks, the degree of damage to the plants is assessed in % damage in comparison to the development of the untreated control. […] A considerable superiority of (I)-Na-salt (at 125 g/ha) over the comparative compounds (G) and (H) (in each case at 250 g/ha!) is shown in Table B2.

[3] = tested on: weeds, such as Alopecurus, Avena, Bromus, Digitaria, Echinochloa, Matricaria, Polygonum and Setaria; assay: Pre-emergence test/greenhouse, summary over weeds; type: in vivo; conditions: cf. Table A1
Description: Pre-Emergence Test/Greenhouse Solvent: 5 parts by weight of acetone Emulsifier: 1 part by weight of alkylaryl polyglycol ether To produce a suitable preparation of active compound, 1 part by weight of active compound is mixed with the stated amount of solvent, the stated amount of emulsifier is added and the concentrate is diluted with water to the desired concentration. Seeds of the test plants are sown in normal soil. After about 24 hours, the soil is sprayed with the preparation of active compound such that the particular amount of active compound desired is applied per unit area. The concentration of the spray liquor is chosen so that the particular amount of active compound desired is applied in 500 ml of water per hectare. After three weeks, the degree of damage to the plants is assessed in % damage in comparison to the development of the untreated control. […] Table A1). The considerable superiority of (I)-Na-salt over the comparative compound (G) is shown in Table A2 [“ai.”=“active ingredient”].

wheat [4] = assay: Post-emergence tests/outdoors (Example C, Canada), crop damage; type: in vivo, summer wheat; conditions: outdoors, 15 g of a.i./ha + SAS (Canplus 411), 70 WP, 9 tests, 1 to 8 weeks after treatment
Description: as §2

Veronica = assay: Post-emergence test/greenhouse; type: in vivo; conditions: 60 g ai./ha, after three weeks
Description: (§3) Post-Emergence Test/Greenhouse [table] To produce a suitable preparation of active compound, 1 part by weight of active compound is mixed with the stated amount of solvent, the stated amount of emulsifier is added and the concentrate is diluted with water to the desired concentration. Test plants which have a height of 5-15 cm are sprayed with the preparation of active compound such that the particular amounts of active compound desired are applied per unit area. The concentration of the spray liquor is chosen so that the particular amounts of active compound desired are applied in 500 ml of water/ha. After three weeks, the degree of damage to the plants is assessed in % damage in comparison to the development of the untreated control. The figures denote: • 0%=no effect (like untreated control) • 100%=total destruction

Wheat [5] = assay: Post-emergence test/greenhouse; type: in vivo; conditions: post-emergence, 60 g ai./ha, after three weeks; 0%=no effect, 100%=total destruction
Description: as §3

**Q.** `COc1nn(C(=O)NS(=O)(=O)c2ccccc2C(F)(F)F)c(=O)n1C` [(D), 2-(2-Trifluoromethyl-phenylsulphonylaminocarbonyl)-4-methyl-5-methoxy-2,4-dihydro-3H-1,2,4-triazol-3-one] was tested. Which “degree of damage, Matricaria” value (Matricaria) did it give?
**A.** 30%

**Q.** And the “degree of damage, Digitaria” value (Digitaria)?
**A.** 80%

**Q.** And the “degree of damage, Polygonum” value (Polygonum)?
**A.** 70%

**Q.** And the pest or weed control at 30 g/ha (Avena)?
**A.** 50%

**Q.** And the pest or weed control at 30 g/ha (Alopecurus)?
**A.** 70%

**Q.** What about the “degree of damage, Wheat” value (Wheat [1]) of the same compound?
**A.** 0%

**Q.** And the “herbicidal effect (%), Sinapis arvensis” value (Sinapis arvensis)?
**A.** 95%

**Q.** And the “herbicidal effect (%), Thlaspi arvense” value (Thlaspi arvense)?
**A.** 95%

**Q.** What about the “herbicidal effect (%), Avena fatua” value (Avena fatua) of the same compound?
**A.** 65%

**Q.** What about the “herbicidal effect (%), Fallopia convolvulus” value (Fallopia convolvulus) of the same compound?
**A.** 70%

**Q.** And the “herbicidal effect (%), Setaria viridis” value (Setaria viridis)?
**A.** 81%

**Q.** What about the “herbicidal activity (in words, compared with (I)-Na-salt)” value [2] of the same compound?
**A.** considerably weaker herbicidal activity

**Q.** And the “herbicidal activity (in words, compared with (I)-Na-salt)” value [3]?
**A.** considerably weaker herbicidal activity

**Q.** And the “Crop damage (wheat)” value (wheat [4])?
**A.** 12%

**Q.** What about the “degree of damage, Veronica” value (Veronica) of the same compound?
**A.** 0%

**Q.** What about the “degree of damage, Wheat” value (Wheat [5]) of the same compound?
**A.** 0%
